# Results from patent publication US7846651B2, “Epitope/peptide recognized by HLA-A2402-restricted Ep-CAM-specific CTL and use of the same” (Aichi Prefecture, priority 2004, dated 2010).
# What was measured:
# T2-A24 cells = assay: 51Cr release assay of C27 against peptide-pulsed T2-A24; format: cell-based; settings: effector to target ratio of 1
# PC9 = assay: Cold target inhibition assay; format: cell-based; settings: peptide 1×10^−5 M pulsed T2-A24 cells
# Description: Cold target inhibition assay was carried out according to the method of Arai et al. (Blood, 97:2903-2907, 2001). […] After several washings, the resultants were incubated with 2×10^4 effector cells for 1 hour to yield a ratio of peptide-pulsed T2-A24 cells to target cells of 40:1, 20:1, 10:1, and 5:1. 2×10^3 51Cr-labeled PC9 cell lines were added to each well. The cytotoxicity was determined as described in the item 7) regarding CTL assays.
# HLA-A2402 = HLA-A2402 (Homo sapiens, UniProt P04439, D101N/D140Y/D185E/E176V/E190D/F33S/G103R/G107R/I119L/I121M/I306V/K335N/L105A/L180Q/L300P/N151K/N90K/Q86E/Q94H/R106L/R138H/R89G/T104I/T345S/V100E/W191G/Y123F); assay: MHC stabilization assay using T2-A24 cells; format: binding; settings: ranking among the seven peptides
# [1] = tested on: CD8 positive T-cells of HLA-A2402 positive healthy donors; assay: ELISPOT assay of IFN-γ; format: cell-based, human; settings: T-cell lines stimulated by peptide-pulsed dendritic cells, incubated with peptide-pulsed T2-A24 cells
# Description: Subsequently, self-derived dendritic cells were pulsed at room temperature for 2 to 4 hours with each of the Ep-CAM synthesis peptides with a concentration of 10 μM in an AIM-V culture medium (product of Gibco) containing 5×10^−5 M β-mercaptoethanol, followed by irradiation (33Gy).
# The dendritic cells (1×10^5 cells) were then cocultivated in a culture tube with CD8 positive T lymphocytes (1×10^6 lymphocytes) in a RPMI1640 culture medium containing 10% human blood serum, 25 ng/mL recombinant human IL-7 (product of R&D systems company), and 5 ng/mL recombinant human IL-12 (product of R&D systems company).
# After seven days of cultivation, the cells were stimulated by adding 1×10^5 peptide-pulsed self-derived dendritic cells prepared as above. After a further seven days of cultivation, the cells were stimulated 3 times by the same procedure. After each restimulation, human recombinant IL-2 (product of Takeda Pharmaceutical Company, Ltd.) was added to give a final concentration of 20 units/ml. Actively proliferating cells were divided into 2 or 3 tubes as necessary, and cultured in a fresh culture medium containing 20 units/ml of IL-2. […]
# The plate was incubated at 37° C. for 20 hours in a 5% CO2 incubator, and thoroughly washed with PBS containing 0.05% Tween 20. […] The number of diffused large spots was counted under the microscope.
molecule,measurement,setting,value
CC[C@H](C)[C@H](NC(=O)[C@H](Cc1ccccc1)NC(=O)[C@H](CCCCN)NC(=O)[C@@H]1CCCN1C(=O)[C@H](CC(=O)O)NC(=O)[C@H](CC(C)C)NC(=O)[C@H](CCC(N)=O)NC(=O)[C@H](Cc1ccc(O)cc1)NC(=O)[C@@H](N)CCCNC(=N)N)C(=O)O [Ep173],peptide concentration at which C27 demonstrated cytotoxicity against pulsed T2-A24 cells,T2-A24 cells,100 pM
same,inhibition of C27-mediated cytotoxicity against PC9 by peptide-pulsed T2-A24 cold target cells,PC9,specifically inhibited
"EMGEMHREL (… PROTEIN EPITOPE PEPTIDE …) [Ep304, Ep-CAM peptide, amino acid positions 304-312]",affinity for the HLA-A2402,HLA-A2402,lowest affinity
"RYLRDQQLL (SYTHETIC PROTEIN EPITOPE PEPTIDE …) [ENV584, human immunodeficiency virus-1 (HIV-1) envelope peptide, residues 584-592, control, reference compound]",production of IFN-γ spots,[1],not observed
"YYVDEKAPEF (… PROTEIN EPITOPE PEPTIDE …) [Ep250, Ep-CAM peptide, amino acid positions 250-259]",production of IFN-γ spots,[1],specifically produced IFN-γ spots
